# Test results published in patent publication US20250114431A1, “COMPOUND, COMPOSITION AND METHODS FOR LOWERING CIRCULATING GLUCOSE” (THE HONG KONG POLYTECHNIC UNIVERSITY, priority 2023, published 2025).
# Test system: MIN6 pancreatic beta cells
# Experiment: Glucose stimulated insulin secretion assay in MIN6 cells (mouse insulin ELISA)
# Format: cell-based
# Details: 100 nM, positive control; FIG. 5A
# Description: To verify that the glucose homeostasis is regulated through liver or hepatocytes by overexpression of Plac9 in an insulin-independent manner, an in vitro insulin secretion assay was performed on confluent pancreatic beta cells, MIN6, in each well treated by […] of Exendin-4 or different concentrations of recombinant Plac9 of mouse origin at 10, 100 and 1000 nM (n=8) and measured the insulin content of each well by a mouse insulin ELISA kit. […] A glucose uptake assay was performed on primary hepatocytes and hepatic cell line, HepG2, treated with different concentrations (from 0.125 or 0.25 to 1.0 μM) in the presence or absence of exogenous 10 nM insulin, and the results are shown in FIGS. 5B and 5C, respectively.
substance,measurement,value
Exendin-4 [reference compound],insulin secretion,significantly induces insulin secretion
